Like-named read-outs stand apart in the source and are kept apart here.
Assays:
Format in all cases: cell-based
V-ATPase = V-ATPase ELISA (Human V-Type Proton ATPase ELISA kit) on treated MDAMB231 cells; conditions: 100 nM (0.1 μM)/10,000 cells, 48 hours
Protocol: An ELISA test was performed using Human V-Type Proton ATPase ELISA kit (My BioSource Catlog no: MBS911862) to determine the V-ATPase inhibitory effect of the compounds of the present invention.
Procedure: 1.0 million cells of MDAMB231 (cell line rich in V-ATPase) were plated on 60 mm plates for 24 hours at 37° C. and 5% CO2. The cells were treated with the test compounds (Formula A to U) at a concentration of 100 nM (0.1 μM)/10,000 cells and incubated for 48 hours. After incubation the supernatant was discarded, the cells were washed with D.P.B.S. (Dulbecco's phosphate-buffered saline), scraped and stored at −80° C. for 48 hours. The cells were thawed, vortexed, homogenized for 7 minutes, followed by centrifugation for 3 minutes at 3000 R.P.M. The supernatant was taken for V-ATPase Assay.
Standards and samples were pipetted into the wells. Antibody specific for V-ATPase was pre-coated onto a microplate. Any V-ATPase present in the standard /sample would get bound by the immobilized antibody. After the incubation period any unbound substances were removed by washing and a biotin-conjugated antibody specific for V-ATPase was added to the wells and plates were re-incubated at 37° C. and 5% CO2. After washing, avidin conjugated Horseradish Peroxidase (HRP) was added to the wells. Following a wash to remove any unbound avidin-enzyme reagent, a substrate solution was added to the wells and colour developed was in proportion to the amount of V-ATPase bound in the initial step. The colour development was stopped, and the optical density was measured at 450 nm spectrophotometrically. The concentration of V-ATPase was then calculated by substituting the optical density in the regression equation obtained from the standards. Percent (%) reduction in V-ATPase was calculated by subtracting the amount of V-ATPase obtained from the untreated/conc. of V-ATPase in untreated X100.

SARS-CoV-2 [1] = experiment: Neutral Red reduction of virus-induced cytopathic effect (primary CPE assay) in Vero 76 cells; conditions: Severe acute respiratory syndrome coronavirus 2, virus-inhibitory
[2] = Neutral Red toxicity assay, uninfected cultures; conditions: African green monkey, Vero 76 cells (uninfected monolayers), cell-inhibitory
Protocol: Confluent or near-confluent cell culture monolayers of Vero 76 cells were prepared in 96-well disposable microplates the day before testing. Cells were maintained in MEM (Minimum Essential Medium Eagle) supplemented with 5% FBS (Fetal Bovine Serum). For antiviral assays the same medium was used but with FBS reduced to 2% and supplemented with 50-μg/ml gentamicin.
Compounds were dissolved in DMSO, saline or the diluent. […] The test compound was prepared at four serial log10 concentrations, usually 0.1, 1.0, 10, and 100 μg/ml or μM. Lower concentrations were used when insufficient compound was supplied. Five microwells were used per dilution: three for infected cultures and two for uninfected toxicity cultures. Controls for the experiment consisted of six microwells that were infected and not treated (virus controls) and six that were untreated and uninfected (cell controls) on every plate. A known active drug was tested in parallel as a positive control drug using the same method as was applied for test compounds. The positive control was tested with every test run.
Growth media was removed from the cells and the test compound was applied in 0.1 ml volume to wells at 2× concentration. Virus, normally at ˜60 CCID50 (50% cell culture infectious dose) in 0.1 ml volume is added to the wells designated for virus infection. Medium devoid of virus was placed in toxicity control wells and cell control wells. […] The plates were then stained with 0.011% neutral red for approximately two hours at 37° C. in a 5% CO2 incubator. The neutral red medium was removed by complete aspiration, and the cells may be rinsed 1× with phosphate buffered solution (PBS) to remove residual dye. The PBS was completely removed, and the incorporated neutral red was eluted with 50% Sorensen's citrate buffer/50% ethanol for at least 30 minutes. Neutral red dye penetrates into living cells, thus, the more intense the red color, the larger the number of viable cells present in the wells. The dye content in each well was quantified using a spectrophotometer at 540 nm wavelength. The dye content in each set of wells was converted to a percentage of dye present in untreated control wells using a Microsoft Excel computer-based spreadsheet and normalized based on the virus control. The 50% effective (EC50, virus-inhibitory) concentrations and 50% cytotoxic (CC50, cell-inhibitory) concentrations are then calculated by regression analysis. The quotient of CC50 divided by EC50 gives the selectivity index (SI) value.

[3] = test system: Human Peripheral Blood Lymphocytes; experiment: MTT toxicity assay on normal cells; conditions: 48 hours
Protocol: Toxicity studies of compounds of the present invention on normal cells The toxicity study was performed on Human Peripheral Blood Lymphocytes obtained differential centrifugation of defibrinated blood. MTT assay for compound of the present invention was performed to determine its toxicity. MTT assay is a simple and sensitive assay where, metabolic reducing activity of the cells is measured. It was carried out in the following manner.
A required volume of cell suspension was prepared as per the cell plating efficiency. 200 μl of prepared cell suspension was added in labelled 96 well plates and the plates were placed in an incubator for 18-24 hours at 37° C. and 5% CO2. Then, 2 μl of respective compound dilution was added and the plates were placed in the incubator for 48 hours at 37° C. and 5% CO2. The suspension was aspirated from the plates and 100 μl of working MTT solution (0.5 mg/ml MTT prepared from 5 mg/ml MTT stock in 1× complete media) was added. The plates were incubated in the incubator for 4 hours at 37° C. and 5% CO2. The plates were spinned down, supernatant removed, 200 μl DMSO was added, mixed gently and placed in the incubator for 10 minutes at 37° C. and 5% CO2. The absorbance at 570 nm was read and percentage viability and IC50 value of the compounds was calculated using regression analysis.

SARS-CoV-2 [4] = experiment: Anti SARS-CoV-2 IC50 estimation by qRT-PCR in VeroE6 cells; conditions: Severe acute respiratory syndrome coronavirus 2, Vero C1008, 48 h
SARS-CoV-2 [5] = experiment: Antiviral screening by qRT-PCR in VeroE6 cells
[6] = Cytotoxicity by Hoechst 33342 / Sytox orange staining; conditions: African green monkey, Vero E6 cells
Protocol: The assay was done in a 96 well plate format in 3 wells for each sample. 1×10e4 Vero E6 cells were plated per well and incubated at 37° C. overnight for monolayer formation. Next day, cells were incubated with the test substance (TS) at the indicated concentration with final DMSO concentration being 0.5%. The Control cells were incubated with 0.5% DMSO only. 24 and 48 hours later, cells were stained with Hoechst 33342 and Sytox orange dye. Images were taken at 10×, 16 images per well, which covers 90% of the well area using ImageXpress Microconfocal (Molecular Devices). Hoechst 33342 nucleic acid stain is a popular cell-permanent nuclear counterstain that emits blue fluorescence when bound to dsDNA. It stains all the live and dead cells. Sytox orange dye stains the nucleic acid in the cells with compromised membranes. This stain is an indicator of cell death. First, the software will count total number of cells in the Hoechst image. In the Sytox image, it will count, among Hoechst positive cells, how many cells are positive for Sytox.

O[C@H]1[C@H](O)COC(Oc2ccc(-c3ccc4c(c3)OCO4)c3ccccc23)[C@@H]1O (stereo partly drawn) [Compound of Formula F, (3R,4S,5R)-2-(1-(benzo[d][1,3]dioxol-5-yl)naphthalen-4-yloxy)-tetrahydro-2H-pyran-3,4,5-triol]
reduction of V-ATPase (%) (V-ATPase): 61.0%
EC50 (SARS-CoV-2 [1]): 2.9 µg/mL
CC50 [2]: 32 µg/mL

COc1cc2c(OC3OCC(OC)C(OC)C3O)c3c(c(-c4ccc5c(c4)OCO5)c2cc1OC)C(=O)OC3 (centres unmarked) [Compound of Formula A, 9-(benzo[d][1,3]dioxol-5-yl)-6,7-dimethoxy-4-(tetrahydro-3-hydroxy-4,5-dimethoxy-2H-pyran-2-yloxy)naphtho[2,3-c]furan-1(3H)-one]
reduction of V-ATPase (%) (V-ATPase): 13.31%
EC50 (SARS-CoV-2 [1]): > 0.1 µg/mL
CC50 [2]: < 0.1 µg/mL

CCOC(=O)c1c(C(=O)OCC)c(-c2ccc3c(c2)OCO3)c2cc(OC)c(OC)cc2c1OC1OCC(OC)C(OC)C1O (centres unmarked) [Compound of Formula D, diethyl 1-(benzo[d][1,3]dioxol-5-yl)-6,7-dimethoxy-4-(tetrahydro-3-hydroxy-4,5-dimethoxy-2H-pyran-2-yloxy)naphthalene-2,3-dicarboxylate]
reduction of V-ATPase (%) (V-ATPase): 18.2%
EC50 (SARS-CoV-2 [1]): 32 µg/mL
CC50 [2]: 40 µg/mL
IC50 (μM) [3]: No activity (Nontoxic)

CCC(CC)COC(=O)[C@H](C)N[P@](=O)(OC[C@H]1O[C@@](C#N)(c2ccc3c(N)ncnn23)[C@H](O)[C@@H]1O)Oc1ccccc1 [Remdesivir, reference compound]
IC50 (SARS-CoV-2 [4]; read-out: IC50 value (μM) E gene): 0.15 µM
IC50 (SARS-CoV-2 [4]; read-out: IC50 value (μM) N gene): 0.11 µM
inhibition at 10 µM (SARS-CoV-2 [5]; Severe acute respiratory syndrome coronavirus 2, Vero C1008, 24 h, read-out: % inhibition of virus replication 24 hours post infection E): 82.4%
inhibition at 10 µM (SARS-CoV-2 [5]; Severe acute respiratory syndrome coronavirus 2, Vero C1008, 24 h, read-out: % inhibition of virus replication 24 hours post infection N): 80.3%
inhibition at 10 µM (SARS-CoV-2 [5]; Severe acute respiratory syndrome coronavirus 2, Vero C1008, 48 h, read-out: % inhibition of virus replication 48 hours post infection E): 99.8%
inhibition at 10 µM (SARS-CoV-2 [5]; Severe acute respiratory syndrome coronavirus 2, Vero C1008, 48 h, read-out: % inhibition of virus replication 48 hours post infection N): 99.9%
viability at 24 h, 10 µM ([6]; 24 hours, read-out: % Cell viability 24 hours): 99.2%
viability at 48 h, 10 µM ([6]; 48 hours, read-out: % Cell viability 48 hours): 94.4%

COc1cc2c(OCCCCN3CCOCC3)c3c(c(-c4ccc5c(c4)OCO5)c2cc1OC)C(=O)OC3 [Compound of Formula L, 4-(4-morpholinobutoxy)-9-(benzo[d][1,3]dioxol-5-yl)-6,7-dimethoxynaphtho[2,3-c]furan-1(3H)-one]
reduction of V-ATPase (%) (V-ATPase): 21.0%
EC50 (SARS-CoV-2 [1]): > 0.34 µg/mL
CC50 [2]: 0.34 µg/mL
IC50 (μM) [3]: No activity (Nontoxic)

COc1cc2c(OC(=O)C(c3ccccc3)C3CCCC3)c3c(c(-c4ccc5c(c4)OCO5)c2cc1OC)C(=O)OC3 (centres unmarked) [Compound of Formula C, 9-(benzo[d][1,3]dioxol-5-yl)-1,3-dihydro-6,7-dimethoxy-1-oxonaphtho[2,3-c]furan-4-yl 2-cyclopentyl-2-phenylacetate]
reduction of V-ATPase (%) (V-ATPase): 14.69%
IC50 (μM) [3]: No activity (Nontoxic)

COc1cc2c(OC(=O)c3cccn3C)c3c(c(-c4ccc5c(c4)OCO5)c2cc1OC)C(=O)OC3 [Compound of Formula B, 9-(benzo[d][1,3]dioxol-5-yl)-1,3-dihydro-6,7-dimethoxy-1-oxonaphtho[2,3-c]furan-4-yl 1-methyl-1H-pyrrole-2-carboxylate]
reduction of V-ATPase (%) (V-ATPase): 15.33%
IC50 (μM) [3]: No activity (Nontoxic)
